Marks after values point to notes of the source that are not given here.
What was measured:
Type in all cases: in vivo
Sprague-Dawley rats [1] = experiment: Psychotropic drug class prediction by discriminant analysis of effects on rat sleep-waking behaviour; conditions: I.P., mirtazapine 2.2 mg/kg
Method: The effect profiles for these compounds at active doses were subjected to a discriminant analysis over these 6 psychoactive classes with placebo being added as an extra class. The resulting discriminant function was used to predict the pharmaco-therapeutic application area for gepirone alone and after co-administration with mirtazapine. Finally, the effect profiles of gepirone, mirtazapine, and the combination of gepirone and mirtazapine were calculated on the basis of vectors derived from the changes in sleep-wake organisation as shown in tables above. For each dose, the probability that the compound belongs to one of 7 defined classes was calculated.

mice = experiment: Defensive (marble) burying test in mice; conditions: mouse, administered alone, S.C., pre-treatment 30 min
Description: Marble burying has been developed and validated as a pre-clinical assay of potential anxiolytic activity (Andrews and Broekkamp (1993). Procedures to identify anxiolytic or anxiogenic agents. In Behavioural Neuroscience, ed. A Sahgal, pp. 37-54. IRL Press, Oxford). The marble burying test places a naive mouse into a novel environment containing 25 marbles (arranged on top of a saw dust surface). A reduction in the number of marbles buried by the mouse has been hypothesised to be an anxiolytic-like/anti-depressant-like effect.
A further series of three separate experiments were conducted during which three single doses of mirtazapine (0.3, 1, 3 mg.kg^−1) were co-administered S.C. with a range of S.C. gepirone doses (0, 0.1, 0.3, 1, 3 mg.kg^−1).

Sprague-Dawley rats [2] = experiment: EEG sleep-waking behaviour test in rats; conditions: rat, I.P., mirt 2.2 mg/kg, change over control
Method: The aim of this test was to characterise the effects on rat sleep-waking behaviour of gepirone alone and of gepirone after co-administration with mirtazapine. To this end additionally the effects of mirtazapine on it own were investigated. Sleep-waking behaviour was analysed by using electroencephalographic (EEG) recordings, electromyographic (EMG) recordings, and by recording a movement index. On the basis of these signals sleep-waking behaviour was automatically classified per 2 second periods into 6 classes: active waking, passive waking, light sleep, deep sleep, intermediate stage sleep and REM sleep (Ruigt et al. A large scale automated system for rat sleep staging. I. Methodology and technical aspects. Electroenceph. and Clin. Neurophysiol.; 1989; 73:52-64). Each experiment is performed simultaneously on 32 adult male Sprague-Dawley rats (Harlan Olac, Bicester, UK, weighing […]), subdivided into four treatment groups. Throughout the whole experiment the animals stay in recording cages and are only taken out to be injected with vehicle or test compound(s). Each experiment contains three sessions. The first session (“test session”), commencing at 10:00 AM with a variable duration of 2-5 hours, serves as adaptation period and is used to assess the quality of the EEG and EMG signals recorded. The second and third sessions both start at 2:30 PM on two consecutive days and have a duration of 15.5 hours each. At the start of the second session all groups receive a vehicle treatment, at the start of the third session all groups receive their test compound(s). One of the treatment groups usually receives the vehicle treatment in both sessions to serve as a baseline for the other groups in the experiment. Separate experiments were done in which different single I.P. administered doses of either gepirone (1.0, 3.0, 10.0 mg/kg), or mirtazapine (2.2, 4.6, 10 mg/kg), or mirtazapine (2.2 mg/kg) in combination with gepirone (1.0, 3.0, 10 mg/kg) were tested. Gepirone was dissolved in 0.9% NaCl m/v in water (saline); mirtazapine was dissolved in 5% m/v Mulgofen (EL 719, GAF) in saline (=0.9% m/v NaCl in water). The drug-induced changes in sleep waking behaviours after I.P. administration of mirtazapine, gepirone, and mirtazapine in combination with gepirone are presented in Tables II, III and IV. […]

[3] = 0 to 3 hours after drug injection
[4] = 3 to 6 hours after drug injection
[5] = 9 to 15 hours after drug injection

## CN1CCN2c3ncccc3Cc3ccccc3C2C1 (stereo not shown) [Mirtazapine, mirtazapine]
Sprague-Dawley rats [1]
  Probability score AC (anticonvulsant): 9%
  Probability score AD (antidepressant): 22%
  Probability score APS (antipsychotic): 3%
  Probability score AXL (anxiolytic): 20%
  Probability score HYP (hypnotic): 29%
  Probability score PLAC (placebo): 16%
  Probability score STIM (stimulant): 0%
mice
  ED50 marble burying: 5.5 mg/kg
Sprague-Dawley rats [2]; [3]
  Latency from time of injection to Deep sleep: −36%
  Latency from time of injection to REM sleep: 27%
  Median duration Active waking: 19%
  Median duration Deep sleep: 13%
  Median duration Intermediate sleep: −85* %
  Median duration Light sleep: 7%
  Median duration Passive waking: −5%
  Median duration REM sleep: −88* %
Sprague-Dawley rats [2]; [4]
  Median duration Active waking: 68%
  Median duration Deep sleep: 19%
  Median duration Intermediate sleep: −74* %
  Median duration Light sleep: 10%
  Median duration Passive waking: 17%
  Median duration REM sleep: −52* %
Sprague-Dawley rats [2]; [5]
  Median duration Active waking: −16%
  Median duration Deep sleep: 20%
  Median duration Light sleep: 27%
  Median duration Passive waking: −8%
  Median duration REM sleep: 22%
Sprague-Dawley rats [2]
  Median duration Intermediate sleep: 111%

— patent US6835728B2, “Drug combination for the treatment of depression and related disorders comprising mirtazapine” (Akzo Nobel N.V., priority 2001, dated 2004)
